According to patent US8450325B2, “Methods for reducing the recurrence of cardiac arrhythmia” (ChanRx Corp., priority 2002, dated 2013):
“Also recorded” adds a separate entry of the source.

Legend:
hERG (IKr) channel = hERG (IKr) channel (Homo sapiens, UniProt Q12809); assay: in vitro
Text: (§1) Nonlinear least squares fits of the current ratio data yielded the best fit value for the IC50 concentration. A positive control was included for each channel tested in the study.

rKv4.3 (Ito) channel = biological target: T1, rKv4.3 (Ito) channel (Rattus norvegicus, UniProt Q62897); assay: voltage clamp current block, rKv4.3 channel in stably transfected mammalian cells; format: cell-based; conditions: Ito (rKv4.3); 0.067 Hz, 4 bpm
T1 sequence (Q62897 1-655): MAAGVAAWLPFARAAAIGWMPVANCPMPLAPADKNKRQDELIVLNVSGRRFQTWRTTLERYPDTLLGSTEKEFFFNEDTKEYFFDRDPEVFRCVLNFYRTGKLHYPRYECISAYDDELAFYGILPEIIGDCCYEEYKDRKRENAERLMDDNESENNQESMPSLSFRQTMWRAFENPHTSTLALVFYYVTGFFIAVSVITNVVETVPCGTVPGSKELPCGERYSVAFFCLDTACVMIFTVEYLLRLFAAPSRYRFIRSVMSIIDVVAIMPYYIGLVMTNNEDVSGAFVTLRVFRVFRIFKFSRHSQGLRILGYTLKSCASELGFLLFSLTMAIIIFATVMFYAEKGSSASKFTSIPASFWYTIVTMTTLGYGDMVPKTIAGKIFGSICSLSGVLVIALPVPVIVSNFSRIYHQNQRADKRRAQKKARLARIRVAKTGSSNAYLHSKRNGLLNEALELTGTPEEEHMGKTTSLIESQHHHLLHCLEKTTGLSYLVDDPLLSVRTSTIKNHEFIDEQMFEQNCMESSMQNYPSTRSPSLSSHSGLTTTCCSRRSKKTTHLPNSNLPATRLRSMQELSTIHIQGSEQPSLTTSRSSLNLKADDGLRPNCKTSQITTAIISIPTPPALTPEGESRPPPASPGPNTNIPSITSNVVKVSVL

[1] = 100 mg doses for 1 week; cited from earlier work
hHNa ion channel = hHNa ion channel (Homo sapiens, UniProt Q14524); assay: voltage clamp current block, hHNa channel in stably transfected mammalian cells; format: cell-based; conditions: 0.1 Hz, 6 bpm
Text: as §1

[2] = biological target: T2, native cardiac L-type calcium channel (gpCaCh, ICa,L) (Cavia porcellus, UniProt O35505); assay: voltage clamp current block, native cardiac L-type calcium channel in guinea pig cardiomyocytes; format: cell-based; conditions: 0.05 Hz, 3 beats per minute
T2 construct: native cardiac L-type calcium channel expressed in guinea pig cardiomyocytes; endogenous in cells; host or cells: guinea pig cardiomyocytes

[3] = biological target: hKvLQT1/hminK (IKs) channel (Homo sapiens, UniProt P51787); assay: voltage clamp current block, hKvLQT1/hminK channel in stably transfected mammalian cells; format: cell-based; conditions: 0.067 Hz, 4 bpm, unit inferred; read-out: IC50, block of IKs (hKvLQT1/hminK) channels
hKv1.5 channel = hKv1.5 channel (Homo sapiens, UniProt P22460); assay: voltage clamp current block, hKv1.5 channel in stably transfected mammalian cells; format: cell-based; conditions: 0.1 Hz, 6 bpm
dog Purkinje fibers = assay: duration of the cardiac action potential in dog Purkinje fibers; design: dose or concentration left out as unconfirmed

Sequence of hHNa ion channel (Q14524 whole entry): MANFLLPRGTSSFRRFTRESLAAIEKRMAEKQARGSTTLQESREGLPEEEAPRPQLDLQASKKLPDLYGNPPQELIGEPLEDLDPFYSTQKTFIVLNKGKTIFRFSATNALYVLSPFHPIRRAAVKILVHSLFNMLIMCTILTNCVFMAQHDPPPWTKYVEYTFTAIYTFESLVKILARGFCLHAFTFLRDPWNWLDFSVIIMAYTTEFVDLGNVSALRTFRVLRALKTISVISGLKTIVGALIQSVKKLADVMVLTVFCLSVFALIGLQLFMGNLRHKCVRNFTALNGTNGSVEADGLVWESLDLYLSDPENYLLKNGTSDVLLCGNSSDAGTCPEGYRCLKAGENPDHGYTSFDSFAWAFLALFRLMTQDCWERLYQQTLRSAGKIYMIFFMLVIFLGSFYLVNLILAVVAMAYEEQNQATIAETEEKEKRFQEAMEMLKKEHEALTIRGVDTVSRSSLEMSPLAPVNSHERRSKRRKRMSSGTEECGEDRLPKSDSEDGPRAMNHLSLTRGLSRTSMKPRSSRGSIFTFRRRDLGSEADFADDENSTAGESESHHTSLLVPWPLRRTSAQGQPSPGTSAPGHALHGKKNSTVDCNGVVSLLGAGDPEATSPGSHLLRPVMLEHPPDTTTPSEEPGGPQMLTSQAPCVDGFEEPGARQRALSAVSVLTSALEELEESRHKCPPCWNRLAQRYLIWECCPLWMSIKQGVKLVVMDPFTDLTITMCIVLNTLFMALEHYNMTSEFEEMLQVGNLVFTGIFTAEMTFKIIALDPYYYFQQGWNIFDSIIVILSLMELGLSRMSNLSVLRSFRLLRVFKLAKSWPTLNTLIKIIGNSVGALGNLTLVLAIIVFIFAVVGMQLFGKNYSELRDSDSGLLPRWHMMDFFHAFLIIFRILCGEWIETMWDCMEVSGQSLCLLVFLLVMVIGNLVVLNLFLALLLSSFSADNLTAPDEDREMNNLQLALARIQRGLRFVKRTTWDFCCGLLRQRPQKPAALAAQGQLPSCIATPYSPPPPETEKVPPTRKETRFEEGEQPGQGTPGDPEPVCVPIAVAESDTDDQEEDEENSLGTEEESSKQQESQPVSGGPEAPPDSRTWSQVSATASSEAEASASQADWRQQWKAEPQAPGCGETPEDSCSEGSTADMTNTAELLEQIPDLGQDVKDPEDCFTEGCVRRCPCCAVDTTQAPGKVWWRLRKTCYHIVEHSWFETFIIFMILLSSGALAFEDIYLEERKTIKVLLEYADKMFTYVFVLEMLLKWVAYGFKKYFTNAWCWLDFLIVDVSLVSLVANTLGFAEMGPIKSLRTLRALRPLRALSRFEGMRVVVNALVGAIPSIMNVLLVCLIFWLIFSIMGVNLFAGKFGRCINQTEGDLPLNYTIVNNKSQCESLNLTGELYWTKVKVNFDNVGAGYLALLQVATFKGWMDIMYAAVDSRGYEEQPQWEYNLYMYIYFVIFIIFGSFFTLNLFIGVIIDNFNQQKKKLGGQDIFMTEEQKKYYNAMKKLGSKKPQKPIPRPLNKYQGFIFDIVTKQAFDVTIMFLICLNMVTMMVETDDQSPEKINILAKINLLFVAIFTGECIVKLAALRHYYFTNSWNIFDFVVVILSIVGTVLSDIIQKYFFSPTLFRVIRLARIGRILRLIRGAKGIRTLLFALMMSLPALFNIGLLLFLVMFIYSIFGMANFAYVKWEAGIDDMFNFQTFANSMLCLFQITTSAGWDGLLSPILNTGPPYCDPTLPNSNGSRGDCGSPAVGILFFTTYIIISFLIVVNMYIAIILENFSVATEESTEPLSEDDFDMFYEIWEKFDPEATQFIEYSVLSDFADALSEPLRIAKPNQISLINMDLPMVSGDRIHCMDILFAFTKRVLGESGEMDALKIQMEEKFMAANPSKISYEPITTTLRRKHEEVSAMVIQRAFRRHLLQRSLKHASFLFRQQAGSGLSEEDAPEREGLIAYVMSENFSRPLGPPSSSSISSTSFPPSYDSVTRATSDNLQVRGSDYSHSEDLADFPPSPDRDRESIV
T2 sequence (O35505 whole entry): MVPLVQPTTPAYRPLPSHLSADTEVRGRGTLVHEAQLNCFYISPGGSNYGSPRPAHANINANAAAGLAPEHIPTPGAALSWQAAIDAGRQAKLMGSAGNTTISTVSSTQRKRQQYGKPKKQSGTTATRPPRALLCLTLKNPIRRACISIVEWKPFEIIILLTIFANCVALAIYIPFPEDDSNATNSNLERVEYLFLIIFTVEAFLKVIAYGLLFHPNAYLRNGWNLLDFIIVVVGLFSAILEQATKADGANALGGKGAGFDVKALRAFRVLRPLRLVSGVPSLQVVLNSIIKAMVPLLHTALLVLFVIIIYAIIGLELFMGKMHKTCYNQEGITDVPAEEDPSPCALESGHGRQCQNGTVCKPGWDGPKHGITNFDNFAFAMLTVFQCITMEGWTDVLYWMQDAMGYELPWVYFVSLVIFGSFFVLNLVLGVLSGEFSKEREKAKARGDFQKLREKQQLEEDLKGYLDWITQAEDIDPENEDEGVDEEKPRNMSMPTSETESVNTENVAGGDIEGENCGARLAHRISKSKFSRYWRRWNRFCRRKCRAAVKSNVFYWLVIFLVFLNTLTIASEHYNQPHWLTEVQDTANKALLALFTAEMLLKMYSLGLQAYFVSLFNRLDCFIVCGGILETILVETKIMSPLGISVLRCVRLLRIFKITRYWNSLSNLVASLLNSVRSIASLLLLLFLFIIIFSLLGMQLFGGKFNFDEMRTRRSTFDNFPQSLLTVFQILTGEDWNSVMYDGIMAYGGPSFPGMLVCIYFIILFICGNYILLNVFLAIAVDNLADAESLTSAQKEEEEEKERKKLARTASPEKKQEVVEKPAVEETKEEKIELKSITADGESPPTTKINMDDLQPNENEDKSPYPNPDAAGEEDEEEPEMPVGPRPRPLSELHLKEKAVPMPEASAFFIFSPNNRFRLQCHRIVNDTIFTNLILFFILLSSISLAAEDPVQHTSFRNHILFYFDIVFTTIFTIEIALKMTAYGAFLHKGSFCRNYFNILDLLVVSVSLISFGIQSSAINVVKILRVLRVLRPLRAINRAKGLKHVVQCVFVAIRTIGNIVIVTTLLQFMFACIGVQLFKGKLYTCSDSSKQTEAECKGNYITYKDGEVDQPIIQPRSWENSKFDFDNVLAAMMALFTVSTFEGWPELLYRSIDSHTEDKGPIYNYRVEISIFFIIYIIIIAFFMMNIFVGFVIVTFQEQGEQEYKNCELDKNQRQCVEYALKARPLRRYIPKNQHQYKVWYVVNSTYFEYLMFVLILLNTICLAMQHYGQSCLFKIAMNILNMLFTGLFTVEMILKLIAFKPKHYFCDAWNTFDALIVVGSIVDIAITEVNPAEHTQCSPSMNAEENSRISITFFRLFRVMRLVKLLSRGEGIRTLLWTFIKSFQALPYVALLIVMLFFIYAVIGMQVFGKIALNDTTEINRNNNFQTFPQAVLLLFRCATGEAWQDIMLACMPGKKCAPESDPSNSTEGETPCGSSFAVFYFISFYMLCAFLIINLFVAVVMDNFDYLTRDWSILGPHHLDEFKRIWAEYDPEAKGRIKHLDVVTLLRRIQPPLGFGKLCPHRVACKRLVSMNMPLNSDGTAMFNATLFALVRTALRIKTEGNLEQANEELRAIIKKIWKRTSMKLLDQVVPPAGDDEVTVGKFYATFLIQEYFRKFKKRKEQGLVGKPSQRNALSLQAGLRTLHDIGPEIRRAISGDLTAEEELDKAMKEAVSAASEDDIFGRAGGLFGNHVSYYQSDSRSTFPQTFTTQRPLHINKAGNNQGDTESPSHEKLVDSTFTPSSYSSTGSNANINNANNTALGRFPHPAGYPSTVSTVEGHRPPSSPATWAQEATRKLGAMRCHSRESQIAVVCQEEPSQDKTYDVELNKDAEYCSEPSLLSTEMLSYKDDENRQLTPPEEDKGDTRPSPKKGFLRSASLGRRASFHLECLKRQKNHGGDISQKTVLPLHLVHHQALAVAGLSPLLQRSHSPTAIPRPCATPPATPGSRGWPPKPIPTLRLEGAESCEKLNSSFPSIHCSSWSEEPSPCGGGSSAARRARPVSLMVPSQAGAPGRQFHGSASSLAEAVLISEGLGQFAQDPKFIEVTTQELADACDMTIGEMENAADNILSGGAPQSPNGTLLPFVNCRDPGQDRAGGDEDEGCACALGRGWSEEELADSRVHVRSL
Sequence of hKv1.5 channel (P22460 whole entry): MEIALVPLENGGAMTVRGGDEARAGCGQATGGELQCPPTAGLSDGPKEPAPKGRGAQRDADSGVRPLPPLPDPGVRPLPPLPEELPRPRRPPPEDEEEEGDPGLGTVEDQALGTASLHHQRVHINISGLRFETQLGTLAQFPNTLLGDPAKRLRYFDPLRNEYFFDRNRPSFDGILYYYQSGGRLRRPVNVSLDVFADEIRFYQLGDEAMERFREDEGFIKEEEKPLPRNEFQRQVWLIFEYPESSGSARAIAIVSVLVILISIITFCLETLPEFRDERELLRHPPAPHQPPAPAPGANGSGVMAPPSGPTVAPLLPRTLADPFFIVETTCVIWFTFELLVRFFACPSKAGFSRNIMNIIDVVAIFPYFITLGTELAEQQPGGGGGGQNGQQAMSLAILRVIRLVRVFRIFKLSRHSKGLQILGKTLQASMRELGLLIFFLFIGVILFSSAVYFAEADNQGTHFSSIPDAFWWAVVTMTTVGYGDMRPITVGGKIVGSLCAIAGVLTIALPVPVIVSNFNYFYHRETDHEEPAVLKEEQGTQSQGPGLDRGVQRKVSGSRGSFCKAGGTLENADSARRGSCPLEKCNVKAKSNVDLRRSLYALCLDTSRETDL

For Fc1ccc(C(OCCN2CCN(CCCc3ccccc3)CC2)c2ccc(F)cc2)cc1 [Vanoxerine, vanoxerine], the IC50 (hERG (IKr) channel) is given as 150 nM, the IC50 (rKv4.3 (Ito) channel) is given as 12000 nM and the serum concentration [1] is given as “about 100 nM”. The “Hill coefficient, block of hHNa” value (hHNa ion channel; Hill equation fit) was “greater than 2.0”, the IC50 (hHNa ion channel; read-out: IC50 estimate, block of hHNa (Hill equation fit)) was 570 nM and the IC50 [2] was 530 nM. The IC50 [3] was 4200 nM, the IC50 (hKv1.5 channel) was 2000 nM and the “effect on the duration of the cardiac potential” value (dog Purkinje fibers) was “no effect; also recorded: did not prolong”.
